Assay results as given in US20260183302A1, “PDK1 REGULATORY COMPOUND AND COMPOSITION CONTAINING THE SAME” (PROVIBIO CO., LTD., priority 2024, published 2026).

Assays:
[1] = system: HCT-116 colon cancer cell lines; experiment: Matrigel Invasion Assay on HCT-116 colon cancer cell line; type: cell-based, human; conditions: HCT-116, Matrigel, 24 hours treatment, vs DMSO
Experimental: To evaluate the metastasis inhibitory efficacy of the compounds of the present invention on HCT-116 colon cancer cell lines, an Invasion Assay using Matrigel was performed to assess the cells' invasion ability.
First, Matrigel was thawed on ice in RPMI-1640 medium without FBS, then diluted with DMEM at a ratio of 1:20.
The diluted Matrigel mixture was applied to the upper chamber at 100 μl per well, and 750 μl of RPMI-1640 without FBS was added to the lower chamber.
The plates were then incubated at 37° C. for 1 hour to allow the Matrigel to solidify.
After coating, the Matrigel mixture in the upper chamber was removed using a pipette, and the chamber was washed with RPMI without FBS.
Human-derived colorectal cancer cell line HCT-116, obtained from the Korean Cell Bank, was cultured in RPMI-1640 medium containing 10% FBS.
Following stabilization, the cells were harvested using Trypsin-EDTA treatment, centrifuged at 1,200 rpm for 3 minutes, the supernatant was removed, and the cells were resuspended in the same medium, the medium in the lower chamber was replaced with 750 μl of RPMI-1640 supplemented with 10% FBS, and the cells were seeded into the upper chamber at a density of 5×10^4 cells/well.
The cells were cultured for 24 hours after attachment, and then the compounds according to the present invention (G078, G085, G086, G088, G089, PBK-2024-010, PBK-2025-010, PBK-2025-013, PBK-2025-016) and the control substance DMSO were diluted and added to the upper chamber after removing the medium.
Additionally, the medium in the lower chamber was replaced with fresh RPMI-1640 containing FBS, and the culture was continued.
After an additional 24 hours, the medium was removed, and 1 ml of methanol was added for 10 minutes to fix the cells.
Subsequently, 1 ml of Hematoxylin was added and reacted for 5 minutes, followed by 1 ml of Eosin, which was reacted for 30 seconds. The sample was then washed with distilled water (DW).
After staining was complete, any remaining cells in the upper chamber were removed. Finally, the infiltrated cells were observed under a microscope, photographed, and the degree of infiltration was analyzed.

[2] = molecular target: T1, full-length PDK1 (PDK1-FL) (Homo sapiens, UniProt O15530); experiment: Binding affinity by Microscale Thermophoresis (MST), full-length PDK1; conditions: Kd full-length vs PKD fragment
T1 construct: the full-length (PDK1-FL) protein of human-derived PDK1; His tag (inferred by me from the Ni-NTA purification); made in house; host or cells: Sf9 insect cells, baculovirus
T1 sequence (O15530 1-556): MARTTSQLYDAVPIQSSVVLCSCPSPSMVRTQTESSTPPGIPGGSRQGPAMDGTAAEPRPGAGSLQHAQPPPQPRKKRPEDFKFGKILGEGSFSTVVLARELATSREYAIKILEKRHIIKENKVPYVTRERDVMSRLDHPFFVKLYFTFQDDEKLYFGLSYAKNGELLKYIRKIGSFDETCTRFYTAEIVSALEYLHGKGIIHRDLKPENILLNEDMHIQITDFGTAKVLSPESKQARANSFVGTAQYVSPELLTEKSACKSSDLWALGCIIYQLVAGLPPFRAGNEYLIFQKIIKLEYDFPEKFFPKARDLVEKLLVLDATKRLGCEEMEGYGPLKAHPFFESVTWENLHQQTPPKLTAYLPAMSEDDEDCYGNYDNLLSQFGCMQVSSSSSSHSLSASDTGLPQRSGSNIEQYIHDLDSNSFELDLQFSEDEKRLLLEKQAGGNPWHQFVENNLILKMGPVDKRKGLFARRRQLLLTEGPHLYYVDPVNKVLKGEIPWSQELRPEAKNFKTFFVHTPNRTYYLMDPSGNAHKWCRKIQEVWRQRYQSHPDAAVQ
Experimental: Microscale Thermophoresis (MST) analysis was performed to quantitatively measure the binding affinity between PDK1 protein and substrate peptides (PDKTide) or the company-developed low-molecular-weight compound (GO88).
The target proteins were the full-length (PDK1-FL) protein of human-derived PDK1 and the Protein Kinase Domain (PKD) fragment, which were expressed using a baculovirus expression system in insect cell lines (Sf9).
The purity of the purified proteins was confirmed by SDS-PAGE and Coomassie Brilliant Blue staining.
The purified protein was labeled with a fluorescent label using the Monolith NT™ RED-NHS Protein Fluorescent Labeling Kit (NanoTemper).
Specifically, 20 µM of the protein was dissolved in PBS (pH 7.4) buffer, mixed with the fluorescent reagent, and reacted at room temperature under dark conditions for 30 minutes. The mixture was then buffered with MST analysis buffer (50 mM HEPES, 150 mM NaCl, 1 mM DTT, 0.05% Tween-20, pH 7.5). […]
The reaction samples were injected into an MST-specific capillary (NanoTemper) and analyzed using a Monolith NT.115 device (NanoTemper) under laser intensity conditions. […]
The measured data were analyzed using MO. Affinity Analysis software (NanoTemper), and the dissociation constant (Kd) was calculated from the binding curve.

| Compound | number of infiltrated cells (invasion) [1] | binding affinity of full-length PDK1 compared to the PDK fragment [2] |
| --- | --- | --- |
| 12-[4-(2,2-dimethylmorpholin-4-yl)]dodecyl-N-(6-aminopurine-2-yl) carboxamide [Compound 11] | reduction in the number of infiltrated cells |  |
| Nc1ncccc1C(=O)NCCCCCCCCCCCCN1CCNCC1 [Compound 14, 2-Amino-N-(12-(piperazin-1-yl)dodecyl)nicotinamide] |  | approximately six times stronger |
